# Source: the OligoGym collection
# Several values for one entry are separate records, joined by “and”; a condition that tells them apart may be missing. Equal values may be shown once. After the bases stand the sugars from the 5' end (letter, count) and the backbone: PS all phosphorothioate, else s phosphorothioate and o phosphodiester by linkage. Methylation of C is not given here. e = 2'-O-(2-methoxyethyl) (MOE); k = constrained ethyl (cEt); d = 2'-deoxy (DNA)
# Target: SOD1
# Conditions: ASO
sequence,measurement,setting,value
"ATCTTCCAAGTGATCAT (sugars e2 k2 d9 k2 e2, PS)",target mRNA inhibition,"HepG2, 5 µM",38%
"ATTCACAGGCTTGAATG (sugars e2 k2 d9 k2 e2, PS)",target mRNA inhibition,"HepG2, 5 µM",29%
"AGTGAGATCACAGAATCTTC (sugars e5 d10 e5, PS)",target mRNA inhibition,"HepG2, 5 µM",30%
"TTGCCCAAGTCTCCAACATG (sugars e5 d10 e5, PS)",target mRNA inhibition,"HepG2, 5 µM",41% and 33%
"CCGTCGCCCTTCAGCACGCA (sugars e5 d10 e5, linkages s1 o4 s10 o2 s2)",target mRNA inhibition,"A431, 0.062 µM",12%
same,target mRNA inhibition,"A431, 0.185 µM",13%
same,target mRNA inhibition,"A431, 0.556 µM",14%
same,target mRNA inhibition,"A431, 1.667 µM",4%
same,target mRNA inhibition,"A431, 5 µM",18%
same,target mRNA inhibition,"A431, 15 µM",7%
same,target mRNA inhibition,"SH-SY5Y, 0.062 µM",16%
same,target mRNA inhibition,"SH-SY5Y, 0.185 µM",5%
same,target mRNA inhibition,"SH-SY5Y, 0.556 µM",19%
same,target mRNA inhibition,"SH-SY5Y, 1.667 µM",36%
same,target mRNA inhibition,"SH-SY5Y, 5 µM",68%
same,target mRNA inhibition,"SH-SY5Y, 15 µM",80%
"AGCCTCATAATAAGTGCCAT (sugars e5 d10 e5, PS)",target mRNA inhibition,"HepG2, 5 µM",6%
"CTTCACTGGTCCATTAC (sugars e3 k2 d7 k2 e3, PS)",target mRNA inhibition,"HepG2, 3 µM",11%
"TCAGCAGTCACATTGCCCAA (sugars e5 d10 e5, PS)",target mRNA inhibition,"HepG2, 5 µM",52% and 42%
"GACTACATCCAAGGGAA (sugars e2 k2 d8 k2 e3, PS)",target mRNA inhibition,"HepG2, 4 µM",50%
"GGGCGATCCCAATTACA (sugars e3 k2 d7 k2 e3, PS)",target mRNA inhibition,"HepG2, 3 µM",18%
"AGGATAACAGATGAGTT (sugars e2 k2 d8 k2 e3, PS)",target mRNA inhibition,"HepG2, 0.1875 µM",30%
same,target mRNA inhibition,"HepG2, 0.75 µM",71%
same,target mRNA inhibition,"HepG2, 3 µM",87%
same,target mRNA inhibition,"HepG2, 4 µM",84%
same,target mRNA inhibition,"HepG2, 12 µM",95%
"GTGTTTAATGTTTATCAGGA (sugars e5 d10 e5, PS)",target mRNA inhibition,"HepG2, 0.1875 µM",18%
same,target mRNA inhibition,"HepG2, 0.75 µM",45%
same,target mRNA inhibition,"HepG2, 3 µM",74%
same,target mRNA inhibition,"HepG2, 5 µM",73%
same,target mRNA inhibition,"HepG2, 12 µM",92%
"AATTTGGATTCTTTTAATAG (sugars e5 d10 e5, PS)",target mRNA inhibition,"HepG2, 5 µM",14%
"GATACATTTCTACAGC (sugars kekeddddddddekek, linkages s1 o3 s8 o1 s2)",target mRNA inhibition,"A431, 0.12 µM",12%
same,target mRNA inhibition,"A431, 0.6 µM",22%
same,target mRNA inhibition,"A431, 3 µM",21%
same,target mRNA inhibition,"A431, 15 µM",34%
same,target mRNA inhibition,"HepG2, 0.222 µM",54%
same,target mRNA inhibition,"HepG2, 0.667 µM",78%
same,target mRNA inhibition,"HepG2, 2 µM",89%
same,target mRNA inhibition,"HepG2, 6 µM",96%
"TTAATGTTTATCAGGAT (sugars e2 k2 d8 k2 e3, PS)",target mRNA inhibition,"HepG2, 0.1875 µM",50%
same,target mRNA inhibition,"HepG2, 0.75 µM",86%
same,target mRNA inhibition,"HepG2, 3 µM",90%
same,target mRNA inhibition,"HepG2, 4 µM",90%
same,target mRNA inhibition,"HepG2, 12 µM",97%
"CGCGACTACTTTATAGG (sugars e3 k2 d7 k2 e3, PS)",target mRNA inhibition,"HepG2, 3 µM",11%
"TAAGTGCCATACAGGGT (sugars e2 k2 d8 k2 e3, PS)",target mRNA inhibition,"HepG2, 5 µM",26%
"ATCTTCCAAGTGATCAT (sugars e3 k2 d7 k2 e3, PS)",target mRNA inhibition,"HepG2, 3 µM",7%
"AAATTGATGATGCCCTGCAC (sugars e5 d10 e5, PS)",target mRNA inhibition,"HepG2, 4 µM",14%
"TTTCTCACTACAGGTAC (sugars e2 k2 d9 k2 e2, PS)",target mRNA inhibition,"HepG2, 5 µM",45%
"CTCTTCATCCTTTGGCC (sugars e3 k2 d7 k2 e3, PS)",target mRNA inhibition,"HepG2, 3 µM",26%
"AAACTATACAAATCTTC (sugars e2 k2 d8 k2 e3, PS)",target mRNA inhibition,"HepG2, 5 µM",55%
"AAGTCACACAATTACAC (sugars e2 k2 d9 k2 e2, PS)",target mRNA inhibition,"HepG2, 5 µM",37%
"ACTACATCCAAGGGAAT (sugars e2 k2 d9 k2 e2, PS)",target mRNA inhibition,"HepG2, 4 µM",48%
"ACACCACAAGCCAAACGACT (sugars e5 d10 e5, PS)",target mRNA inhibition,"HepG2, 5 µM",49%
"TTAATGTTTATCAGGAT (sugars e2 k2 d9 k2 e2, linkages s1 o3 s9 o1 s2)",target mRNA inhibition,"A431, 0.12 µM",12%
same,target mRNA inhibition,"A431, 0.6 µM",48%
same,target mRNA inhibition,"A431, 3 µM",54%
same,target mRNA inhibition,"A431, 15 µM",72%
"TTTCTACAGCTAGCAGG (sugars e2 k2 d9 k2 e2, PS)",target mRNA inhibition,"HepG2, 0.1875 µM",26%
same,target mRNA inhibition,"HepG2, 0.75 µM",68%
same,target mRNA inhibition,"HepG2, 3 µM",89%
same,target mRNA inhibition,"HepG2, 4 µM",84%
same,target mRNA inhibition,"HepG2, 12 µM",95%
"TCCATGCAGGCCTTCAG (sugars e3 k2 d7 k2 e3, PS)",target mRNA inhibition,"HepG2, 3 µM",18%
